From patent US20250257060A1, “OXADIAZOLE COMPOUND, PHARMACEUTICAL COMPOSITION COMPRISING SAME, AND USE THEREOF” (SUZHOU GENHOUSE BIO CO., LTD., priority 2022, published 2025)
Where two headings read alike, the source gives them in different places.

What was measured:
HDAC6 = HDAC6 (Homo sapiens (Human), UniProt Q9UBN7); assay: HDAC6 enzymatic activity assay; format: biochemical
Procedure: The inhibitory activity of the compounds of the present application against HDAC6 was evaluated by an enzymatic activity assay. HDAC6 (Abcam), test compounds, and a 20 µM substrate solution (Ac-GAK(Ac)-AMC) were each added to a 384-well plate, and the plate was incubated at 37° C. for 30 min. […] and […] were added, and the plate was incubated at room temperature for 15 min. […] IC50 was obtained by fitting using GraphPadPrism 7.0 software.

[1] = Pharmacokinetic test in mice (IV and PO); format: in vivo, BALB/c mice; conditions: for Cmax / AUC(0-inf) / AUC(0-t) / MRT inf / Vd / Tmax: BALB/c, mouse, plasma; for MRT inf: read-out: MRT(0-∞); for Vd: read-out: Vz
Procedure: In this example, the pharmacokinetic behavior of the compounds after intravenous injection (IV) and intragastric (PO) administration in BALB/c mice was tested.
On the day of administration, mice were weighed for actual body weight and the administration volume was calculated. Each compound was tested in two groups with 3 mice in each group, one group administered by single intravenous injection and the other group of mice by single intragastric administration. Whole blood samples were collected via the orbit at prescribed time points (0.25 h, 0.5 h, 1 h, 2 h, 4 h, 8 h, and 24 h after administration). After blood sample collection, the samples were immediately transferred to labeled commercial sample tubes containing K2-EDTA (0.85-1.15 mg), followed by centrifugation (3200×g, 4° C., 10 min) and plasma collection. The plasma was transferred to a pre-cooled centrifuge tube, frozen in dry ice, and stored in an ultra-low temperature freezer at −60° C. or lower until the LC-MS/MS analysis.
Plasma concentrations were determined by a LC-MS/MS method. Plasma drug concentration data for compounds 1 and 2 were processed in a non-compartmental model using WinNonlin Version 6.3 (Pharsight, Mountain View, CA) pharmacokinetic software. The relevant pharmacokinetic parameters were calculated by a linear logarithmic trapezoid method.

[2] = Brain-to-blood drug concentration ratio of mice; format: in vivo; conditions: mouse, 5 mg/kg PO
Procedure: On the day of administration, mice were weighed for actual body weight and the administration volume was calculated. In each group of 9 mice, the compound was administered by single intravenous (IV) injection or intragastric (PO) administration. Whole blood samples were collected via the orbit at prescribed time points. After blood sample collection, the samples were immediately transferred to labeled commercial sample tubes containing K2-EDTA (0.85-1.15 mg), followed by centrifugation (3200×g, 4° C., 10 min) and plasma collection. The plasma was transferred to a pre-cooled centrifuge tube, frozen in dry ice, and stored in an ultra-low temperature freezer at −60° C. or lower until the LC-MS/MS analysis. 20 μL of a plasma sample or brain tissue homogenate was taken and 80 μL of an internal standard solution (50 ng/mL solution of propafenone in acetonitrile) was added. The plate was sealed with a film sealer at 165° C., shaken on a micro oscillator (maximum vibration speed) for 10 min, and centrifuged at 4000 rpm for 20 min using a low-speed benchtop centrifuge, 10 μL of supernatant was transferred and 90 μL of acetonitrile was added. The mixture was vortexed and mixed well, and then the plate was sealed with the film sealer at 165° C. After the mixture was vortexed and mixed well, 1 μL of supernatant was taken for LC-MS/MS analysis. Plasma drug concentration data for the compounds were processed in a non-compartmental model using WinNonlin Version 6.3 (Pharsight, Mountain View, CA) pharmacokinetic software. The relevant pharmacokinetic parameters were calculated by a linear logarithmic trapezoid method.
Data processing: brain-to-blood drug concentration ratio of mice at the same time point=drug concentration in brain tissue/drug concentration in plasma

[3] = brain, read-out: Brain drug concentration
[4] = plasma, read-out: Blood drug concentration

Chain of HDAC6 (Q9UBN7 whole entry): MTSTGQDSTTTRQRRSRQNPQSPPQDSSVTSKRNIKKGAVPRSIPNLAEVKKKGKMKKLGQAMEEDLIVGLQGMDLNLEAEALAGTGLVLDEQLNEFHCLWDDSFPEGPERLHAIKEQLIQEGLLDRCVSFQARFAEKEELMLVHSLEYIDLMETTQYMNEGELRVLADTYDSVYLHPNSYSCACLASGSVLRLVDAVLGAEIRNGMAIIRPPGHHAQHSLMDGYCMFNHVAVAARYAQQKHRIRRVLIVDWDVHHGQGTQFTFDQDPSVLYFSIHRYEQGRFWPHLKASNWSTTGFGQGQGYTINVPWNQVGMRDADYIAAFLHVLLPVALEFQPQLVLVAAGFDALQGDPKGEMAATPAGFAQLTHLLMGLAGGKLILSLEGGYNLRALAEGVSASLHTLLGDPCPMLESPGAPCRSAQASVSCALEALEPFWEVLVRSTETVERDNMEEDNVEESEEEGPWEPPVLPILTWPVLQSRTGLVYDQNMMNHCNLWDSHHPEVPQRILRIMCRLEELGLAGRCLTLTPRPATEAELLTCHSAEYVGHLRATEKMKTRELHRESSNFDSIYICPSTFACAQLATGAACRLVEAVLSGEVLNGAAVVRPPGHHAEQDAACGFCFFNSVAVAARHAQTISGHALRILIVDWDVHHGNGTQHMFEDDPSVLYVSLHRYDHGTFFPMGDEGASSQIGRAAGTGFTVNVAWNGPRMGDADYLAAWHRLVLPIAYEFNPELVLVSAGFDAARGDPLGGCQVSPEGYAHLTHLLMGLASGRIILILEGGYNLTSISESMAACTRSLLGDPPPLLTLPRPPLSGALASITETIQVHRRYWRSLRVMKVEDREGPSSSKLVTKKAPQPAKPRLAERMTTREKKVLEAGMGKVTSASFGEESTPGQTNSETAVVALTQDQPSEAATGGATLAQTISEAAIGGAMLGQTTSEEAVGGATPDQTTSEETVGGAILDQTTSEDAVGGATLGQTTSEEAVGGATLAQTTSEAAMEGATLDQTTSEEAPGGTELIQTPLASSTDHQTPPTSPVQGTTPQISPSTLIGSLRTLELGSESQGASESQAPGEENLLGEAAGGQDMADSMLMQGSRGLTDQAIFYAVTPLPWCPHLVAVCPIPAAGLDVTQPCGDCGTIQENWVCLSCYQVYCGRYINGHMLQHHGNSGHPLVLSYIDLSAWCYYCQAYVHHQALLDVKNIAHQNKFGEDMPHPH

SMILES: CS(=O)(=O)N[C@@H]1CCCC[C@H]1N1Cc2ccc(-c3nnc(C(F)F)o3)cc2S1(=O)=O [Compound 24]
- IC50 (HDAC6): 194 nM

SMILES: Cn1cc([C@@H](O)[C@H](c2cnn(C)c2)N2Cc3ccc(-c4nnc(C(F)F)o4)cc3S2(=O)=O)cn1 (single isomer, unassigned) [Compound 95j-B-A]
- IC50 (HDAC6): 66.8 nM

SMILES: O=S1(=O)c2cc(-c3nnc(C(F)F)o3)ccc2CN1[C@@H]1CCCC[C@H]1O [Compound 21]
- IC50 (HDAC6): 742 nM

SMILES: O=S1(=O)c2cc(-c3nnc(C(F)F)o3)ccc2CN1[C@H](c1ncccn1)[C@H](O)c1ncccn1 [Compound 103j-D]
- IC50 (HDAC6): 231 nM

SMILES: O=C(NCC1CC1)N[C@@H]1CCCC[C@H]1N1Cc2ccc(-c3nnc(C(F)F)o3)cc2S1(=O)=O [Compound 110]
- IC50 (HDAC6): 325 nM

SMILES: Cn1cc([C@@H]([C@H](O)c2ccccc2)N2Cc3ccc(-c4nnc(C(F)F)o4)cc3S2(=O)=O)cn1 [Compound 80]
- Cmax ([1]; po, 5 mg/kg, read-out: C0/Cmax): 7.17 µM
- AUC(0-inf) ([1]; mice, IV 1 mg/kg): 5.28 µM·h
- AUC(0-t) ([1]; mice, IV 1 mg/kg): 5.05 µM·h
- Cmax ([1]; mice, IV 1 mg/kg (C0)): 1.91 µM
- MRT inf ([1]; mice, IV 1 mg/kg): 2.6 h
- Vd ([1]; mice, IV 1 mg/kg): 1 L/kg
- AUC(0-inf) ([1]; mice, PO 5 mg/kg): 34 µM·h
- AUC(0-t) ([1]; mice, PO 5 mg/kg): 25.5 µM·h
- Tmax ([1]; mice, PO 5 mg/kg): 1 h
- MRT inf ([1]; mice, PO 5 mg/kg): 5.6 h
- CLz ([1]; mice, IV 1 mg/kg): 6.7 mL/min/kg
- t½z ([1]; mice, IV 1 mg/kg): 1.8 h
- F ([1]; mice, PO 5 mg/kg): 101.2%
- t½z ([1]; mice, PO 5 mg/kg): 4.2 h
- concentration at 2 h [2, 3]: 160 ng/mL
- concentration at 8 h ([2]; brain, 8 h, read-out: Brain drug concentration): 72 ng/mL
- Kp at 2 h ([2]; brain/plasma): 0.08
- Kp at 8 h ([2]; brain/plasma, 8 h): 0.1
- concentration at 2 h [2, 4]: 1910 ng/mL
- concentration at 8 h ([2]; plasma, 8 h, read-out: Blood drug concentration): 695 ng/mL

SMILES: CNC(=O)N[C@@H]1CCCC[C@H]1N1Cc2ccc(-c3nnc(C(F)F)o3)cc2S1(=O)=O [Compound 94]
- IC50 (HDAC6): 203 nM

SMILES: O=S1(=O)c2cc(-c3nnc(C(F)F)o3)ccc2CN1[C@@H]1CCCC[C@H]1NS(=O)(=O)C(F)(F)F [Compound 116]
- IC50 (HDAC6): 173 nM

SMILES: O=S1(=O)c2cc(-c3nnc(C(F)F)o3)ccc2CN1[C@@H](c1ccc(F)cn1)[C@H](O)c1ccc(F)cn1 (single isomer, unassigned) [Compound 88j-A]
- IC50 (HDAC6): 132 nM

SMILES: O=S1(=O)c2cc(-c3nnc(C(F)F)o3)ccc2CN1[C@@H](c1cnccn1)[C@H](O)c1cnccn1 (single isomer, unassigned) [Compound 99j-A]
- IC50 (HDAC6): 148 nM

SMILES: O=C(N[C@@H]1CCCC[C@H]1N1Cc2ccc(-c3nnc(C(F)F)o3)cc2S1(=O)=O)C(F)(F)C(F)(F)F [Compound 3]
- IC50 (HDAC6): 46.1 nM

SMILES: Cn1cc([C@@H](O)[C@H](c2cnn(C)c2)N2Cc3ccc(-c4nnc(C(F)F)o4)cc3S2(=O)=O)cn1 (single isomer, unassigned) [Compound 95j-A]
- IC50 (HDAC6): 231 nM

SMILES: O=S1(=O)c2cc(-c3nnc(C(F)F)o3)ccc2CN1[C@@H](c1cnccn1)[C@H](O)c1cnccn1 (single isomer, unassigned) [Compound 99j-A-A]
- IC50 (HDAC6): 205 nM

SMILES: O=S1(=O)c2cc(-c3nnc(C(F)F)o3)ccc2CN1[C@H](c1ncccn1)[C@@H](O)c1ncccn1 [Compound 103j-B]
- IC50 (HDAC6): 108 nM

SMILES: O=S1(=O)c2cc(-c3nnc(C(F)F)o3)ccc2CN1[C@H](c1ccccn1)[C@H](O)c1ccc(F)cn1 [Compound 87]
- Cmax ([1]; po, 5 mg/kg, read-out: C0/Cmax): 5.75 µM
- AUC(0-inf) ([1]; mice, IV 1 mg/kg): 1.77 µM·h
- AUC(0-t) ([1]; mice, IV 1 mg/kg): 1.62 µM·h
- Cmax ([1]; mice, IV 1 mg/kg (C0)): 1.89 µM
- MRT inf ([1]; mice, IV 1 mg/kg): 0.8 h
- Vd ([1]; mice, IV 1 mg/kg): 0.9 L/kg
- AUC(0-inf) ([1]; mice, PO 5 mg/kg): 15.5 µM·h
- AUC(0-t) ([1]; mice, PO 5 mg/kg): 15.1 µM·h
- Tmax ([1]; mice, PO 5 mg/kg): 1 h
- MRT inf ([1]; mice, PO 5 mg/kg): 2.3 h
- CLz ([1]; mice, IV 1 mg/kg): 18.3 mL/min/kg
- t½z ([1]; mice, IV 1 mg/kg): 0.6 h
- F ([1]; mice, PO 5 mg/kg): 175.8%
- t½z ([1]; mice, PO 5 mg/kg): 1.5 h
- concentration at 2 h [2, 3]: 298 ng/mL
- Kp at 2 h ([2]; brain/plasma): 0.28
- concentration at 2 h [2, 4]: 1060 ng/mL

SMILES: O=S1(=O)c2cc(-c3nnc(C(F)F)o3)ccc2CN1[C@@H](c1ncccn1)[C@H](O)c1ncccn1 [Compound 103j-A]
- IC50 (HDAC6): 285 nM

SMILES: O=C(NC1CC1)N[C@@H]1CCCC[C@H]1N1Cc2ccc(-c3nnc(C(F)F)o3)cc2S1(=O)=O [Compound 109]
- IC50 (HDAC6): 89.8 nM

SMILES: Cn1cc([C@H]([C@@H](O)c2ccccc2)N2Cc3ccc(-c4nnc(C(F)F)o4)cc3S2(=O)=O)cn1 (single isomer, unassigned) [Compound 79i-B]
- IC50 (HDAC6): 75.9 nM

SMILES: O=C(N[C@@H]1CCCC[C@H]1N1Cc2ccc(-c3nnc(C(F)F)o3)cc2S1(=O)=O)C(F)(F)F [Compound 55]
- IC50 (HDAC6): 48.4 nM

SMILES: O=S1(=O)c2cc(-c3nnc(C(F)F)o3)ccc2CN1Cc1cccc(Cl)c1 [Compound 60]
- IC50 (HDAC6): 490 nM

SMILES: O=C(N[C@@H]1CCCC[C@H]1N1Cc2ccc(-c3nnc(C(F)F)o3)cc2S1(=O)=O)N1CCCC1 [Compound 112]
- IC50 (HDAC6): 141 nM

SMILES: O=S1(=O)c2cc(-c3nnc(C(F)F)o3)ccc2CN1C(c1ccccn1)[C@H](O)c1ccccn1 (stereo partly shown) [Compound 70i-A]
- IC50 (HDAC6): 137 nM

SMILES: O=S1(=O)c2cc(-c3nnc(C(F)F)o3)ccc2CN1c1ccccc1-c1ccccn1 [Compound 117]
- IC50 (HDAC6): 449 nM

SMILES: O=S1(=O)c2cc(-c3nnc(C(F)F)o3)ccc2CN1[C@@H](c1cnccn1)[C@H](O)c1cnccn1 (single isomer, unassigned) [Compound 99j-B]
- IC50 (HDAC6): 138 nM

SMILES: O=S1(=O)c2cc(-c3nnc(C(F)F)o3)ccc2CN1[C@@H](c1ccccn1)[C@H](O)c1ccc(F)cn1 (single isomer, unassigned) [Compound 84j-B]
- IC50 (HDAC6): 113 nM

SMILES: O=S1(=O)c2cc(-c3nnc(C(F)F)o3)ccc2CN1[C@@H]1COCC[C@H]1O [Compound 49]
- IC50 (HDAC6): 820 nM

SMILES: Cn1cc([C@H]([C@@H](O)c2ccccc2)N2Cc3ccc(-c4nnc(C(F)F)o4)cc3S2(=O)=O)cn1 (single isomer, unassigned) [Compound 79i-A]
- IC50 (HDAC6): 118 nM

SMILES: Cn1cc([C@@H](O)[C@H](c2cnn(C)c2)N2Cc3ccc(-c4nnc(C(F)F)o4)cc3S2(=O)=O)cn1 (single isomer, unassigned) [Compound 95j-B-B]
- IC50 (HDAC6): 183 nM

SMILES: CC(F)(F)C(=O)N[C@@H]1CCCC[C@H]1N1Cc2c(F)cc(-c3nnc(C(F)F)o3)cc2S1(=O)=O [Compound 39]
- IC50 (HDAC6): 261 nM

SMILES: O=S1(=O)c2cc(-c3nnc(C(F)F)o3)ccc2CN1[C@@H](c1ccccn1)[C@H](O)c1ccc(F)cn1 (single isomer, unassigned) [Compound 84j-A-B]
- IC50 (HDAC6): 23.1 nM

SMILES: COC(=O)N[C@@H]1CCCC[C@H]1N1Cc2ccc(-c3nnc(C(F)F)o3)cc2S1(=O)=O [Compound 92]
- IC50 (HDAC6): 164 nM

SMILES: Cn1cc([C@@H](O)[C@H](c2cnn(C)c2)N2Cc3ccc(-c4nnc(C(F)F)o4)cc3S2(=O)=O)cn1 (single isomer, unassigned) [Compound 95j-B]
- IC50 (HDAC6): 29.9 nM

SMILES: O=S1(=O)c2cc(-c3nnc(C(F)F)o3)ccc2CN1[C@@H](c1cnccn1)[C@H](O)c1cnccn1 (single isomer, unassigned) [Compound 99j-A-B]
- IC50 (HDAC6): 73.9 nM

SMILES: O=S1(=O)c2cc(-c3nnc(C(F)F)o3)ccc2CN1[C@@H](c1ccc(F)cn1)[C@H](O)c1ccc(F)cn1 (single isomer, unassigned) [Compound 88j-A-A]
- IC50 (HDAC6): 584 nM

SMILES: O=C(N[C@@H]1CCCC[C@H]1N1Cc2c(F)cc(-c3nnc(C(F)F)o3)cc2S1(=O)=O)C(F)F [Compound 40]
- IC50 (HDAC6): 252 nM

SMILES: O=S1(=O)c2cc(-c3nnc(C(F)F)o3)ccc2CN1[C@@H](c1ccccn1)[C@H](O)c1ccc(F)cn1 (single isomer, unassigned) [Compound 84j-A-A]
- IC50 (HDAC6): 210 nM

SMILES: CC(C)(C)OC(=O)N[C@@H]1CCCC[C@H]1N1Cc2ccc(-c3nnc(C(F)F)o3)cc2S1(=O)=O [Compound 20]
- IC50 (HDAC6): 224 nM

SMILES: O=C(N[C@@H]1CCCC[C@H]1N1C(=O)c2ccc(-c3nnc(C(F)F)o3)cc2S1(=O)=O)C(F)F [Compound 6]
- IC50 (HDAC6): 395 nM
